# PubChem BioAssay AID463136 (University of Pittsburgh Molecular Library Screening Center, 2010)
# Records with an inconclusive call do not appear. Calls of active or inactive are those of the source. The rule behind the calls is not given here.
# Assays:
# [1] = blockers of dynein-driven microtubule transport – imaging, high-content imaging, dose response (AID 463136); conditions: HCS imaging, dynein-mediated cargo transport inhibition; inhibition at max concentration; at 50 µM; stronger effect = higher value;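 note: mouse mammary adenocarcinoma 3617.4 cells expressing GFP-tagged rat glucocorticoid receptor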; for inhibition: reference of the scale not given here
# [2] = tested on: HCS imaging, dynein-mediated cargo transport inhibition; assay: as above
SMILES,inhibition [1] [%],IC50 [2]
CN1C(=O)NC(=O)/C(=C/c2ccc([N+](=O)[O-])s2)C1=O,84.7,12 µM
Cc1ccc(C2=NOC(=O)/C2=C\c2ccc(C)o2)cc1,79.8,39.9 µM
Cc1cc(N2CCCC2)c(F)cc1/C=C\[N+](=O)[O-],126,25.2 µM
CC(=O)OCCNc1cc(SCc2ccco2)c2nonc2c1[N+](=O)[O-],59.9,42.1 µM
N#C/C(=C\c1cccc([N+](=O)[O-])c1)C(=O)NCc1ccc(Cl)cc1,13.8,> 50 µM (inactive)
O=S(=O)(c1ccccc1)c1ncc(C(F)(F)F)cc1Cl,79.3,8.14 µM
Clc1ncnc2scc(-c3ccc(Br)cc3)c12,85.1,19.9 µM
CC[n+]1c(/C=C/C=C/N(C(C)=O)c2ccccc2)sc2ccccc21,99.6,1.08 µM
Cn1cc(C(=O)CCl)c2ccccc21,75,22.5 µM
Cc1ccc(-n2nnnc2CCl)cc1,80,12.2 µM
Cc1cc(C(=O)CCl)c(C)n1-c1ccon1,61.3,11.8 µM
O=C(NC1CCCCC1)C(c1cccnc1)N(C(=O)CCl)c1cccc(Cl)c1 (centres undefined),52.2,7.48 µM
CC(C)CN1C(=O)/C(=C/c2c(N3CCc4ccccc4C3)nc3ccccn3c2=O)SC1=S,131,26 µM
O=C1C=CC(O)(c2cc(=O)c3c(O)cc(O)cc3o2)C=C1,86.7,5.9 µM
CCCn1nc([N+](=O)[O-])c(C(C#N)c2nc3ccccc3s2)c(Cl)c1=O (centres undefined),97,14.6 µM
Cc1ccc(NC(=O)c2cc(N3C(=O)C=CC3=O)ccc2N2CCOCC2)cc1,-6.6,> 50 µM (inactive)
N#CC1=C(N)OC2=C(CC/C2=C\c2ccccc2)C1c1ccccc1 (centres undefined),75.8,11.1 µM
CCCNC(=O)Cn1c(=O)/c(=C\c2ccc(-c3ccc([N+](=O)[O-])cc3)o2)s/c1=C\C(=O)C(C)(C)C,95.2,32.2 µM
Cc1cc(C)cc(N2C(=O)NC(=O)/C(=C\C=C\c3ccco3)C2=O)c1,88,32.3 µM
CCSc1nc2ccccc2n1C(=O)/C=C\c1ccc(OC)c(OC)c1,7.37,> 50 µM (inactive)
Nc1c(C(=O)N/N=C/c2ccc(F)cc2)oc2nc(-c3ccccc3)cc(-c3ccco3)c12,40.9,> 50 µM (inactive)

SMILES,inhibition [1] [%],IC50 [2]
CN1CCN(S(=O)(=O)c2ccc(Sc3nnnn3-c3ccccc3)c([N+](=O)[O-])c2)CC1,75.4,17.5 µM
CCN(CC)c1ccc(/C=N/c2sc3c(c2C#N)C2CCN3CC2)c(O)c1,82.6,38 µM
O=[N+]([O-])c1c(NCCCO)cc(Sc2ccc(Cl)cc2)c2nonc12,30.9,> 50 µM (inactive)
O=C1NC(=O)N(c2ccccc2)C(=O)/C1=C\c1ccc([N+](=O)[O-])s1,85.5,14.4 µM
CCN(CC)c1ccc2cc(-c3nc(-c4ccc(OC)cc4)cs3)c(=O)oc2c1,98.4,25.7 µM
COCc1cc(S(=O)c2ccc(Cl)cc2)nc(C)n1 (centres undefined),86.5,15.6 µM
C=C1C(=O)C=C2CN(C(=O)c3ccccc3)[C@@](Cc3ccc(F)cc3)(C(=O)OC)[C@@H]12,80.3,4 µM
O=C(/C=C/Sc1ccccc1)c1ccccc1,76.9,30.3 µM
CC(C)(C)C(=O)/C(=C/c1ccncc1)n1cncn1,82.3,8.77 µM
COC/C=C/C1=CC2=CC(=O)C(C)(OC(=O)c3cnc4ccccc4n3)C(=O)C2=CN1Cc1ccc(OC)cc1 (centres undefined),89.5,15 µM
Cc1cc(C)cc(Cn2ncc(Cl)c(Cl)c2=O)c1,63.9,22.7 µM
COc1cc(N2C(=O)C=CC2=O)c(OC)cc1Cl,12.9,> 50 µM (inactive)
CN(C)CCCN(C(=O)CCOc1ccccc1)c1nc2c(F)cccc2s1,30.5,> 50 µM (inactive)
COC(=O)CS(=O)(=O)c1nnc([C@H](Cc2ccccc2)NC(=O)OC(C)(C)C)o1,34.1,> 50 µM (inactive)
COc1ccc(/C=C\c2nc(=O)c3ccccc3o2)cc1,86.9,6.91 µM
COC(=O)c1cc(=O)n(CCc2ccccc2F)c(=Nc2ccc(F)c(Cl)c2)s1,11.9,> 50 µM (inactive)
CCOC(=O)CC1C(=O)NCCN1c1nc2ccc(C)cn2c(=O)c1/C=C1\SC(=S)N(CC(C)C)C1=O (centres undefined),71.8,44.9 µM
Cc1nnc(NC(=O)c2sc3nc(-c4cccs4)cc(C(F)(F)F)c3c2N)s1,154,2.21 µM
Cc1ccc(-n2ncc(Br)c(Br)c2=O)cc1,70.1,13.8 µM
N#C/C(=C\c1cccs1)C(=O)c1ccccc1Cl,63.4,> 50 µM (inactive)
COc1ccc(N2C(=O)CC(Sc3ncn[nH]3)C2=O)c(OC)c1 (centres undefined),5.17,> 50 µM (inactive)

SMILES,inhibition [1] [%],IC50 [2]
N#Cc1c(C(F)(F)F)cc(-c2ccccc2)nc1SCc1nc(N)nc(N2CCOCC2)n1,8.72,> 50 µM (inactive)
O=C(Nc1ccc(F)cc1)c1nn(-c2ccccc2)c(=O)cc1Cl,76.4,35.7 µM
CCOC(=O)c1c2ccc(OCC(=O)N/N=C/c3ccc(Cl)cc3)cc2n2ccccc12,27.4,> 50 µM (inactive)
CC(=O)Nc1c([N+](=O)[O-])cc(C)c(Cl)c1[N+](=O)[O-],88.8,11.2 µM
COc1cccc(/C(O)=C/c2nc3ccc(C(=O)NCCc4ccc(Cl)cc4)cc3[nH]c2=O)c1,32.4,> 50 µM (inactive)
CSc1nnc(C)c(/C=C/Nc2ccc(C)cc2)n1,109,31 µM
O=[N+]([O-])c1ccc(N/N=C/c2ccc[nH]2)cc1,148,18 µM
COc1ccc2c(c1)c1ccc3c(c1n2C)C(=O)C=CC3=O,93.1,14.5 µM
CCOC(=O)c1c(NC(=O)/C=C/C(=O)O)sc(C)c1-c1ccc(Cl)cc1,93.3,9.7 µM
CCN(CC)c1ccc2cc(-c3nc4ccccc4[nH]3)c(=O)oc2c1,98.9,21.9 µM
O=C(c1nnsc1S(=O)(=O)c1ccc(Cl)cc1)N1CCOCC1,60.5,5.38 µM
O=c1[nH]sc2cc(F)ccc12,91.3,12 µM
O=C(OCn1ncc(Br)c(Br)c1=O)c1ccc(F)cc1,55,7.52 µM
COC(=O)c1cc([N+](=O)[O-])c(-n2cncn2)c([N+](=O)[O-])c1,12.4,> 50 µM (inactive)
Cc1cc(C)c2c(=O)n(CC(=O)NCCCN3CCN(c4ccccc4F)CC3)sc2n1,96.3,14 µM
COc1ccc(OC)c(CCNC(=O)Cn2sc3nc(C)cc(C)c3c2=O)c1,93.6,29.1 µM
COc1ccc([N+](=O)[O-])c(S(=O)(=O)c2ccc(Cl)cc2)n1,34.4,> 50 µM (inactive)
O=C(c1ccccc1)c1cc(Cl)ccc1N1C(=O)C=CC1=O,12,> 50 µM (inactive)
CC(C)(C)c1cc(CN(CCO)CCO)cc(C(C)(C)C)c1O,33.9,> 50 µM (inactive)
COc1ccc(-c2cc(C(F)(F)F)nc(S(=O)(=O)CCCC(=O)Nc3cc(C)on3)n2)cc1OC,67.2,42.9 µM
COc1cccc(N2C(=O)NC(=O)/C(=C\c3ccc([N+](=O)[O-])s3)C2=O)c1,85.4,13.5 µM

SMILES,inhibition [1] [%],IC50 [2]
Cc1ccc(N2C(=N)/C(=C3/Nc4ccccc4S3)C(c3ccccc3)C2=O)cc1 (centres undefined),81.8,23.2 µM
O=C(Cn1ncc(Cl)c(Cl)c1=O)N1CCN(S(=O)(=O)c2ccc3ccccc3c2)CC1,65.1,24.1 µM
COc1ccc(OC)c(N2C(=O)NC(=O)/C(=C\c3ccc([N+](=O)[O-])s3)C2=O)c1,86.7,11.9 µM
CCN(CC)c1ccc(/C=C2/SC(=O)N(C(C)C)C2=O)o1,39.9,> 50 µM (inactive)
CC(=O)OCCN(C)c1cc(SC(C)C)c2nonc2c1[N+](=O)[O-],68.1,35.5 µM
CCCCNc1c2c3c(cccc3n(C)c1=O)C(=O)c1ccccc1-2,12,> 50 µM (inactive)
Cc1ccc(-c2cn3nc(-c4ccccc4)c(-c4ccccc4)nc3n2)cc1,93.2,40.2 µM
Cc1nc2c(=O)n(C)c(=O)n(C)c2nc1Cl,62.9,9.82 µM
COc1ccc(C(=O)Cn2c(C)nc([N+](=O)[O-])c2Br)cc1,86.4,3.56 µM
CCCCc1ccc(/C=C2\C(=O)c3ccccc3C(O)=C2C(=O)OCC)cc1,15.5,> 50 µM (inactive)
Clc1ccc(-c2nnc(Sc3nc4ccccc4o3)c3ccccc23)cc1,83,39.3 µM
CCOC(=O)c1c(-n2c(C)cc(C=C3C(=O)NC(=S)NC3=O)c2C)sc2c1CCCC2,78.1,5.75 µM
CC(C)n1c(O)c(C2c3cc(Cl)ccc3Oc3[nH]c(=O)n(C(C)C)c(=O)c32)c(=O)[nH]c1=O (centres undefined),64.2,13.6 µM
CC(=O)N1/C(=C/c2ccc(N(C)C)cc2)C(=O)c2ccccc21,78.9,29.9 µM
O=C(CCl)N(c1ccccc1)c1ccccc1,61.3,14.2 µM
COc1cc(/C=C(/C(=O)c2cccs2)c2nc3ccccc3[nH]2)cc(OC)c1O,61.2,13.8 µM
Cc1ccc(-n2nnnc2Sc2ccc(S(=O)(=O)NCCN(C)C)cc2[N+](=O)[O-])cc1,86.3,11.9 µM
CC(C)(C)C1C/C(=C/c2ccco2)C(=O)/C(=C/c2ccco2)C1 (centres undefined),101,24.9 µM
CC1(C)COC(/C=C/c2cccc([N+](=O)[O-])c2)=N1,88.6,10 µM
